A short description of series [1]: Solubility of D-peptides in buffer (UV-vis of supernatant after centrifugation). It counts as physicochemical. To be noted: different buffers including PBS, aqueous buffer; different buffer conditions including PBS pH 7.4; 1 h at 37° C., 20 800×g centrifugation; read-out: starting concentration up to which the compound remained completely in the supernatant. From the text:
D-enantiomeric peptides with C-terminal amidation were acquired from CASLO (CASLO, DK) as a lyophilized chloride salt powder having a purity of >95%.

In series [2] the target is α-syn (Homo sapiens, UniProt P37840, A140C). The series is described as follows: MST measurement of SVD-1 and α-syn (FIG. 2, α-syn 140C-C2-Alexa 647). The series is classed as binding. From the text: 70% LED power; 60% MST power.
A further series concerns the target WT alpha-synuclein (Homo sapiens, UniProt P37840). The series is described as follows: Multicycle SPR experiment of WT alpha-synuclein and immobilized SVD-1 (FIG. 3). The series is classed as binding. The procedure:
WT α-syn was injected in a concentration range of […] in PBS, PH 7.4. Regeneration: 2 M Gua-HCl and 0.1% SDS.
For orientation: Surface plasmon resonance follows binding to a sensor surface in real time, without labels.

For a further series, the target named is α-syn oligomers (Homo sapiens, UniProt P37840). The series is described as follows: α-syn oligomer elimination, HPLC-SEC of supernatant (FIG. 4). It counts as biochemical. Conditions: SVD-1 150 and 250 μM; 5 μM monomer-equivalent oligomers, 3 days, 900 rpm, 37° C. From the text:
The samples were centrifuged at 21 000×g and the supernatant was loaded onto an HPLC-SEC column.

For series [3], the target named is α-syn (Homo sapiens, UniProt P37840). The series is described as follows: Gradient centrifugation of α-syn aggregation samples (FIG. 6). It counts as biochemical. To be noted: equimolar SVD-1, 9 days, 37° C., no shaking, Iodixanol gradient. The method, then:
No shaking, no glass beads, at 37° C. After 9 days, the triplet samples were combined together and 100 μl was added to an Iodixanol gradient (5-50% (w/v)). 15 fractions, each of 140 μl were analyzed by means of RP-HPLC using a Zorbax 300 SB-C8 column and integrated to α-syn peaks.

The next series addresses full-length α-syn (Homo sapiens, UniProt P37840). Put plainly: MST measurement of fluorophore-labeled peptides with full-length α-syn (FIG. 10). It counts as binding. Conditions: 100 nM labeled peptide, PBS pH 7.4, 25° C., individual measurement. The procedure:
The peptides were fluorescence labeled by means of cysteine-maleimide coupling. SVD-1_Cys and SVD 1a_Cys were fluorescence labeled at the C-terminus with a fivefold or tenfold molar excess of TCEP and CF633-PEG2-maleimide (Sigma-Aldrich, USA). The labeling reaction was carried out in 25 mM NaPi, PH 7.0, for 2 h at RT. The labeled peptides were purified at 25° C. using an Agilent 1260 Infinity II System and a C-18 RP-HPLC column (Zorbax 300 SB-C8/SB-C 18, Agilent, USA). The mobile phases consisted of A: water+0.1% TFA, and B: acetonitrile+0.1% TFA. The fluorescence-labeled peptides and proteins were eluted with a gradient of 5-40% (v/v) B in 30 min. The fluorescence-labeled products were fractionated using the absorption wavelength of the fluorophore (CF633: 633 nm) and the pooled samples were subsequently lyophilized and redissolved in the appropriate buffer. The protein concentrations were determined by means of UV-vis and the fluorescence-labeled samples were stored at −20° C.
The experiments for microscale thermophoresis (MST) were carried out using a Monolith NT.115 device (NanoTemper Technologies GmbH, GE). Fluorescence-labeled peptides were diluted in PBS, PH 7.4 to a final concentration of 100 nM. […] The data was evaluated with the thermophoresis effect, using the NT analysis software (version 1.5.41) supplied by the manufacturer. […]

A further series relates to PC12 cells. The series is classed as cell-based. To be noted: rat, 24 h, 15 μM. The method, then: PC12 cells (Leibniz-Institut DSMZ, GE) were cultured at 37° C. on a collagen A-coated (Biochrom GmbH, GE) tissue culture flask in RPMI 1640 medium, supplemented with 5% fetal calf serum and 10% horse serum in an atmosphere humidified to 95% with 5% CO2. 10 000 cells per well in a volume of 100 μl were seeded into collagen A-coated 96-well plates (Thermo Fisher Scientific, USA and incubated for 24 hours at 37° C. and 300 rpm in a thermocycler.
Furthermore, 15 μM of the peptides alone, cell media, buffer without peptide and 0.1% Triton X-100 (cytotoxic compound) were used as controls. After further incubation in a 95% humidified atmosphere with 5% CO2 at 37° C. for 24 hours, the viability of the cells was measured using the Cell Proliferation Kit I (MTT) (Roche Applied Science, CH), following the manufacturer's protocol.
The MTT-formazan product was quantified by measuring the absorbance at 570 nm, corrected by subtracting the absorbance at 660 nm, in a FluoroStar Optima plate reader (BMG labtech, GE). All results were normalized to untreated cells grown only in medium. The significance test was carried out by one-way ANOVA with Bonferroni post-hoc analysis (OriginPro 2020, OriginLab, USA; n=4).
The significance test was carried out by one-way ANOVA with Bonferroni post-hoc analysis: […], ***p≤0.01. The means are stated±SD (n=4).

The target of another series is WT α-syn (Homo sapiens, UniProt P37840). The series is described as follows: Single cycle SPR experiment of WT α-syn on CM5-immobilized peptides (FIG. 8). Conditions: 1:1 binding model fit, CM5 chip, PBS pH 7.4, 0.005% Tween-20. The procedure:
Each peptide was immobilized on a CM5 sensor chip surface. WT α-syn was injected in a concentration range of 30-500 nM in PBS, PH 7.4, 0.005% (v/v) Tween-20. Regeneration was carried out after every cycle with 2 M Gua-HCl for 2×30 sec. The KDs were determined with a 1:1 binding model fit, as follows: SVD-1a: 15.7 nM; SVD-6a: 14.0 nM; SVD-10a: 12.3 nM.

Series [4] has as its system αSynA53T-YFP cells (HEK293T). The series is described as follows: Cell assay for seeded α-synuclein aggregation (FIG. 19). It counts as cell-based, human. The procedure:
A construct encoding full-length A53T-mutated human α-syn and fused with YFP at the C-terminus was synthesized and introduced into the pMK-RQ expression vector (GeneArt; Thermo Fisher Scientific, USA). The α-synA53T-YFP construct was sub-cloned using the restriction sites NheI (5′) and NotI (3′) in the vector pIRESpuro3 (Clontech; Takara Bio, JPN). HEK293T cells (American Type Culture Collection) were cultured in high-glucose Dulbecco's Modified Eagle's Medium (DMEM; Sigma-Aldrich, USA) which had 10% fetal calf serum (Sigma-Aldrich, USA), 50 units/ml penicillin, and also 50 μg/ml streptomycin (Sigma-Aldrich, USA) added thereto. The cells were cultured at 37° C. in a humidified atmosphere with 5% CO2.
The cells plated in DMEM were transfected with Lipofectamine 2000 (Invitrogen; Thermo Fisher Scientific, USA). Stable cells were selected in DMEM with 1 μg/ml puromycin (EMD Millipore, USA). Monoclonal cell lines were produced by means of fluorescence-activated cell sorting of a polyclonal cell population in 96-well plates using a MoFlo XDP cell sorter (Beckman Coulter, USA). […]
The plates were then incubated at 37° C. in a humidified atmosphere with 5% CO2. On the third day, the cells were imaged in an IN Cell Analyzer 6500HS system (Cytiva, USA) using the blue and green fluorescence channels, and analyzed by the IN Carta Image Analysis software (Cytiva, USA) which had been used to establish an algorithm for identifying intracellular aggregates in living cells. Four wells were used for each condition and 16 images were recorded per well and analyzed by a fully-automated algorithm in order to prevent distortions. […]
In order to validate the inhibitory effect of SVD-1a in cells, use was made of the α-synA53T-YFP cell system which stably expresses human α-syn with the familial A53T mutation, fused with YFP, in HEK293T cells, and the fluorescence-based detection of aggregates makes it possible to clearly show the strongly fluorescent spots within the cells against the background, intracellularly after seeding with PFF oligomers. […] Panels C, F and I show αSynA53T-YFP fluorescence. […]

Where two headings read alike, the source gives them in different places. Square brackets hold non-standard residues; d marks the D form. Peptide text beside a SMILES is read from it.

As to `CC[C@@H](C)[C@@H](NC(=O)[C@@H](Cc1c[nH]cn1)NC(=O)[C@@H](CCC(=O)O)NC(=O)[C@@H](CCC(N)=O)NC(=O)[C@@H](Cc1c[nH]c2ccccc12)NC(=O)[C@@H](Cc1ccc(O)cc1)NC(=O)[C@H](NC(=O)[C@@H](CCC(=O)O)NC(=O)[C@@H](Cc1c[nH]cn1)NC(=O)[C@H](NC(=O)[C@H]1CCCN1C(=O)[C@@H](CCSC)NC(=O)[C@H](N)CCCCN)[C@H](C)O)[C@H](C)O)C(=O)N[C@H](Cc1c[nH]c2ccccc12)C(=O)N[C@H](Cc1c[nH]cn1)C(=O)N[C@H](C)C(N)=O` [SVD-1, kmpthetywqehiwha] (H-[dK][dM][dP][dT][dH][dE][dT][dY][dW][dQ][dE][dH][dI][dW][dH][dA]-NH2), the solubility at 1 h in series [1] was at least 1000 µM. The Kd was found to be 55 nM on α-syn [2]; 12.5 nM on WT alpha-synuclein (heterogeneous ligand adjustment, PBS pH 7.4, read-out: KD1); 2000 nM at WT alpha-synuclein (read-out: KD2, heterogeneous ligand adjustment, PBS pH 7.4); 170 nM on full-length α-syn. Also, at α-syn oligomers, the “α-syn oligomer in the supernatant” value is reported as “not possible to detect any α-syn oligomer in the supernatant”. On α-syn [3], the “fibril formation (fractions F6-F12)” value is “No fibril formation (F6-F12) was observed”. Also, the “cells saved (cell viability)” value with PC12 cells is given as 89%.

`CC(C)C[C@@H](NC(=O)[C@H]1CCCN1C(=O)[C@@H](CCC(N)=O)NC(=O)[C@@H](CCCNC(=N)N)NC(=O)[C@@H](Cc1c[nH]c2ccccc12)NC(=O)[C@@H](CC(=O)O)NC(=O)[C@H](N)Cc1ccc(O)cc1)C(=O)N[C@H](CO)C(=O)N[C@H](C)C(=O)N[C@H](CO)C(=O)N[C@H](CCCNC(=N)N)C(=O)N[C@H](Cc1ccccc1)C(=O)N[C@H](CC(C)C)C(=O)N[C@H](C)C(=O)N1CCC[C@@H]1C(=O)N[C@H](Cc1c[nH]c2ccccc12)C(=O)N[C@H](CCCNC(=N)N)C(=O)N[C@H](CCCNC(=N)N)C(=O)N[C@H](CCCNC(=N)N)C(=O)N[C@H](CCCNC(=N)N)C(=O)N[C@H](CCCNC(=N)N)C(N)=O` [SVD-6a, ydwrqplsasrflapwrrrrr] (H-[dY][dD][dW][dR][dQ][dP][dL][dS][dA][dS][dR][dF][dL][dA][dP][dW][dR][dR][dR][dR][dR]-NH2) returned a Kd at WT α-syn of 14 nM.

On to `C[C@H](O)[C@@H](NC(=O)[C@@H](CC(N)=O)NC(=O)[C@@H](Cc1c[nH]c2ccccc12)NC(=O)[C@@H](Cc1ccc(O)cc1)NC(=O)[C@H]1CCCN1C(=O)[C@H]1CCCN1C(=O)[C@@H](CC(N)=O)NC(=O)[C@@H](Cc1c[nH]c2ccccc12)NC(=O)[C@@H](CCC(N)=O)NC(=O)[C@@H](CCC(N)=O)NC(=O)[C@@H](Cc1c[nH]c2ccccc12)NC(=O)[C@@H](Cc1c[nH]cn1)NC(=O)[C@@H](CO)NC(=O)[C@H](N)CO)C(=O)N[C@H](CC(=O)O)C(=O)N[C@H](CO)C(=O)N[C@H](CCCNC(=N)N)C(=O)N[C@H](CCCNC(=N)N)C(=O)N[C@H](CCCNC(=N)N)C(=O)N[C@H](CCCNC(=N)N)C(=O)N[C@H](CCCNC(=N)N)C(N)=O` [SVD-10a, sshwqqwnppywntdsrrrrr] (H-[dS][dS][dH][dW][dQ][dQ][dW][dN][dP][dP][dY][dW][dN][dT][dD][dS][dR][dR][dR][dR][dR]-NH2), for which, on WT α-syn, the Kd stood at 12.3 nM.

kgvgnleyqlwalegk-NH2 yielded a cells with aggregation in [4] (25 μM peptide, seeded with soluble α-syn-PFF oligomers, third day) of 85%. Also, in [4] (seeded with 30 nM PFF oligomers, day 3, two-stage transfection), the “inhibition of α-syn aggregation in cells” value was “not”.

The values above are taken from patent US20250346629A1, “USE OF D-ENANTIOMERIC PEPTIDE LIGANDS OF MONOMERIC ALPHA-SYNUCLEIN FOR THE THERAPY OF VARIOUS SYNUCLEINOPATHIES” (PRIAVOID GMBH, priority 2021, published 2025).
